Test results from ChEMBL document CHEMBL1144455, “A small molecule-kinase interaction map for clinical kinase inhibitors” (Nat Biotechnol, 2005).

Assays:
Activated CDC42 kinase 1 = Activated CDC42 kinase 1 (Homo sapiens, UniProt Q07912)
[1] = biological target: Receptor-interacting serine/threonine-protein kinase 2 (Homo sapiens, UniProt O43353)
[2] = biological target: Serine/threonine-protein kinase pim-2 (Homo sapiens, UniProt Q9P1W9)
[3] = biological target: Calcium/calmodulin-dependent protein kinase type II subunit gamma (Homo sapiens, UniProt Q13555)
Calcium/calmodulin-dependent protein kinase type II subunit gamma, sequence (Q13555 whole entry): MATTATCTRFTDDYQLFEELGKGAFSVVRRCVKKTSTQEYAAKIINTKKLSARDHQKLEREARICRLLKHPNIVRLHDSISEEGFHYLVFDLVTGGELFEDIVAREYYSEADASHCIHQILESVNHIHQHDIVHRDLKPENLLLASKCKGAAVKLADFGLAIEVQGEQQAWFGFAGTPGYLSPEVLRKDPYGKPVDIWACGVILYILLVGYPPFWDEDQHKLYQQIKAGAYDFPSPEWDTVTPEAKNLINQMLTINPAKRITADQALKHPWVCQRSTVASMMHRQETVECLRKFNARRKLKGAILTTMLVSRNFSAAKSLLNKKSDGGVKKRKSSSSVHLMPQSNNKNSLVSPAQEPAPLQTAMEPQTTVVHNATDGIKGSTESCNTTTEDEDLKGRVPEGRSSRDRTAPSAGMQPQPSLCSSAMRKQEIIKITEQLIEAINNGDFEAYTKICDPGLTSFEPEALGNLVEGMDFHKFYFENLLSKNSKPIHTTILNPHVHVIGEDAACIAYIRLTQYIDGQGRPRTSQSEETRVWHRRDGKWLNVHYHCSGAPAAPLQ

[4] = biological target: T1, Dual specificity protein kinase TTK (Homo sapiens, UniProt P33981)
T1 sequence (P33981 whole entry): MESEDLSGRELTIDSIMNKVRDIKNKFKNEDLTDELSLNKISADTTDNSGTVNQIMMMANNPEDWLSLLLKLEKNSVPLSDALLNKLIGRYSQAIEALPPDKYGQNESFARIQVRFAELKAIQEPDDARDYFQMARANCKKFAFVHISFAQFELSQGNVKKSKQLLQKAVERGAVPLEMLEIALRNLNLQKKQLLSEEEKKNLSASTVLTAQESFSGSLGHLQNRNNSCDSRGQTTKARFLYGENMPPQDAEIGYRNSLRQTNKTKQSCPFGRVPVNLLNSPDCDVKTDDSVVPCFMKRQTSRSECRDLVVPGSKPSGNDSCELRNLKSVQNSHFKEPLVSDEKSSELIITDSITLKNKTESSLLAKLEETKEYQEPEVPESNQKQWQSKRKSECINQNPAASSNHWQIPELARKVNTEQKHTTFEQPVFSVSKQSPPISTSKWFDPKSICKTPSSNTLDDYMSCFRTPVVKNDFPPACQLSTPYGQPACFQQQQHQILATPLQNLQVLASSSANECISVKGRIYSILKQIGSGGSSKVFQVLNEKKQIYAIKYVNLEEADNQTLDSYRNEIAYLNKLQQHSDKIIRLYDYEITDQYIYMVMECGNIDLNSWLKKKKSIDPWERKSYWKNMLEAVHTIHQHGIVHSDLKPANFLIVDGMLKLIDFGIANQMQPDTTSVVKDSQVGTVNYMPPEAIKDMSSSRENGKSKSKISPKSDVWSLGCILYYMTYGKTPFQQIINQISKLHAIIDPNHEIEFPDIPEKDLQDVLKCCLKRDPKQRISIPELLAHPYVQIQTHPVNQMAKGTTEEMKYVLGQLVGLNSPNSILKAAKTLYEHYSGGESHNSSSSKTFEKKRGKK

[5] = biological target: T2, Serine/threonine-protein kinase 17A (Homo sapiens, UniProt Q9UEE5)
T2 sequence (Q9UEE5 whole entry): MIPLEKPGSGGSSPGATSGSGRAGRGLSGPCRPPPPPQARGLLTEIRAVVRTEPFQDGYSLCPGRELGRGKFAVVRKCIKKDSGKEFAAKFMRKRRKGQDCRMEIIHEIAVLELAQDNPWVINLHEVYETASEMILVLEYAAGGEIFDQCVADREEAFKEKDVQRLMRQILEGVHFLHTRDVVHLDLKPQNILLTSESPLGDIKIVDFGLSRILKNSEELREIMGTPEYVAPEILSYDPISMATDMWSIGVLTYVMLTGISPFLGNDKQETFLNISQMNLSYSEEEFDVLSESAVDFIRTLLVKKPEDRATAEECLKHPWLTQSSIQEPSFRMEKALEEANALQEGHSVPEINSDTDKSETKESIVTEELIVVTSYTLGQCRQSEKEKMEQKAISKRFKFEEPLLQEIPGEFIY

[6] = biological target: Ribosomal protein S6 kinase alpha-5 (Homo sapiens, UniProt O75582)
Ribosomal protein S6 kinase alpha-5, sequence (O75582 whole entry): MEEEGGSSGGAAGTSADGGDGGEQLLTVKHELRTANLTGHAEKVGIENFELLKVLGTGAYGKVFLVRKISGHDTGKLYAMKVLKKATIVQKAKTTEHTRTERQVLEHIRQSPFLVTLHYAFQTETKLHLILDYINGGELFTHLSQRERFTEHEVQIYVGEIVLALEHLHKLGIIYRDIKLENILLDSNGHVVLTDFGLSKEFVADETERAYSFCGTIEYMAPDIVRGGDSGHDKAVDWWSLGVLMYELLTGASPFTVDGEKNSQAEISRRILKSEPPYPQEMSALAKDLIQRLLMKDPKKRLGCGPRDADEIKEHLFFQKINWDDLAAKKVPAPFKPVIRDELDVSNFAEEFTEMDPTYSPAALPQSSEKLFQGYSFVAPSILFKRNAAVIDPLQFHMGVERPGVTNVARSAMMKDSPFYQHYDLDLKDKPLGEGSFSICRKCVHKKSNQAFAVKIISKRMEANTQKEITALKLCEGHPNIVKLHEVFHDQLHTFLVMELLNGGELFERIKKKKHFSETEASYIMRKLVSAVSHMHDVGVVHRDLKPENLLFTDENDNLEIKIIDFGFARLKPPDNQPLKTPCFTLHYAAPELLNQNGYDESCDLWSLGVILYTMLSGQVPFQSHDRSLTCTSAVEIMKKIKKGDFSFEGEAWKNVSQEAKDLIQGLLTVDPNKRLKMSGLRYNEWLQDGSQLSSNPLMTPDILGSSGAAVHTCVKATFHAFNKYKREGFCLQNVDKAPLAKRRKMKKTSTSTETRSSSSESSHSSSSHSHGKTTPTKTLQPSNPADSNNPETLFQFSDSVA

Focal adhesion kinase 1 = Focal adhesion kinase 1 (Homo sapiens, UniProt Q05397)
[7] = biological target: Cyclin-dependent kinase 5 (Homo sapiens, UniProt Q00535)
Cyclin-dependent kinase 5, sequence (Q00535 whole entry): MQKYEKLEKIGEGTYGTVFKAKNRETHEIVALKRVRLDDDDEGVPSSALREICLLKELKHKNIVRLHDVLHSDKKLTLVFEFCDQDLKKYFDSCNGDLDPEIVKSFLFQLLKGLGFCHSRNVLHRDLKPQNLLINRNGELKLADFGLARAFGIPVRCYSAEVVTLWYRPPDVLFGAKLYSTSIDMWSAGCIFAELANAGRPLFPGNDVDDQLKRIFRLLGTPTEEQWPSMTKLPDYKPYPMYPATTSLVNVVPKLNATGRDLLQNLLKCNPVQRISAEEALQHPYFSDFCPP

[8] = biological target: Tyrosine-protein kinase Lyn (Homo sapiens, UniProt P07948)
Ephrin type-A receptor 7 = Ephrin type-A receptor 7 (Homo sapiens, UniProt Q15375)
[9] = biological target: Calcium/calmodulin-dependent protein kinase type 1 (Homo sapiens, UniProt Q14012)
Calcium/calmodulin-dependent protein kinase type 1, sequence (Q14012 whole entry): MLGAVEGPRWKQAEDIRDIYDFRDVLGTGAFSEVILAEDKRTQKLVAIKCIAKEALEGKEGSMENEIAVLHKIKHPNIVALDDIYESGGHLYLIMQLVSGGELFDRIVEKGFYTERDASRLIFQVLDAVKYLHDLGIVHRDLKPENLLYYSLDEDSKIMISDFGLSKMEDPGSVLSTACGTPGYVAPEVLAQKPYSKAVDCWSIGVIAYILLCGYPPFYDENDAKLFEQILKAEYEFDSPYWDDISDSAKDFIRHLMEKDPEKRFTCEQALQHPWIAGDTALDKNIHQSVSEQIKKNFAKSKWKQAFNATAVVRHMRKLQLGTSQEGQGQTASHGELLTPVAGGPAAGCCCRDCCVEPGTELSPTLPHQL

[10] = biological target: T3, Serine/threonine-protein kinase Nek9 (Homo sapiens, UniProt Q8TD19)
T3 sequence (Q8TD19 whole entry): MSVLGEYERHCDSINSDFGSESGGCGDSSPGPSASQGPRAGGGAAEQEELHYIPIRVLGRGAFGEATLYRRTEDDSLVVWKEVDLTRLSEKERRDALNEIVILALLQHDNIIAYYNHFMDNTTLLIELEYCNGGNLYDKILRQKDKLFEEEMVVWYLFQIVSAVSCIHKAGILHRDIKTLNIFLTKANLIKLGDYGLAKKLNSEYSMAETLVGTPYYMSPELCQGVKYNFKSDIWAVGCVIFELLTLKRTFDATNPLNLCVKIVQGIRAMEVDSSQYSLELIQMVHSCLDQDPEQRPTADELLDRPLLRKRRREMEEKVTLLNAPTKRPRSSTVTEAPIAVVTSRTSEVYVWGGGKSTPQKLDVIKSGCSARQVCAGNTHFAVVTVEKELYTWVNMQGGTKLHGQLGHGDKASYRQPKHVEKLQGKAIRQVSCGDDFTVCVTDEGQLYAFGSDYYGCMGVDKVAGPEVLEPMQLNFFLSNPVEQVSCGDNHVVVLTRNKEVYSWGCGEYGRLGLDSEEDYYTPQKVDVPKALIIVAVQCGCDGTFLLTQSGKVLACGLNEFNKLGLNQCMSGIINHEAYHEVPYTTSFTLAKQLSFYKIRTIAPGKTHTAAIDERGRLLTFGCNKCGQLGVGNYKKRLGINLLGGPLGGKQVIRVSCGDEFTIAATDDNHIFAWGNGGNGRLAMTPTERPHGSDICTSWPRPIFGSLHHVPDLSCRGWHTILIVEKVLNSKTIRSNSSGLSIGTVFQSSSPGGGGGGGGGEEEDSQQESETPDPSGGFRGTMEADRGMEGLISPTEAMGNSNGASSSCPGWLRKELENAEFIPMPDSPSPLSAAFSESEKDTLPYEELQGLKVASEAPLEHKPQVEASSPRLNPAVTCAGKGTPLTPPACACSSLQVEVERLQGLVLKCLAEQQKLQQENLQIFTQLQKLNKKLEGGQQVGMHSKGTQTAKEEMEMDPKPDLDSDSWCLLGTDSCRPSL

[11] = biological target: Tyrosine-protein kinase Fgr (Homo sapiens, UniProt P09769)
Tyrosine-protein kinase Fgr, sequence (P09769 whole entry): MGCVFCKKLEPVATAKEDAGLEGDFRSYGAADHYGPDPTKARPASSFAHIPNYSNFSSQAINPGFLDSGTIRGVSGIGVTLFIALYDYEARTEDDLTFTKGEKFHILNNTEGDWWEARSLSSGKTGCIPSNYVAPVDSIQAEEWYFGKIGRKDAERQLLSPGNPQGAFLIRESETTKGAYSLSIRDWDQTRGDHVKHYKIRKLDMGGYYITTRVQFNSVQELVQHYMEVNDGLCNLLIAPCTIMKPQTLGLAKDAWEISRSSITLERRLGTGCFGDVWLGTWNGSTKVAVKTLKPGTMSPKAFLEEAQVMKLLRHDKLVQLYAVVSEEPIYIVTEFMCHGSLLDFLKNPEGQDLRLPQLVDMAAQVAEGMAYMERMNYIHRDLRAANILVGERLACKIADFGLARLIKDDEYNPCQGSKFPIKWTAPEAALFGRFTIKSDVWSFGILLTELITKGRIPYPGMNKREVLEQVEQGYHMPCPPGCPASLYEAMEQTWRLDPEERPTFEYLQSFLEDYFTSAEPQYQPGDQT

Ephrin type-A receptor 2 = Ephrin type-A receptor 2 (Homo sapiens, UniProt P29317)
[12] = biological target: Tyrosine-protein kinase Yes (Homo sapiens, UniProt P07947)
Tyrosine-protein kinase Yes, sequence (P07947 whole entry): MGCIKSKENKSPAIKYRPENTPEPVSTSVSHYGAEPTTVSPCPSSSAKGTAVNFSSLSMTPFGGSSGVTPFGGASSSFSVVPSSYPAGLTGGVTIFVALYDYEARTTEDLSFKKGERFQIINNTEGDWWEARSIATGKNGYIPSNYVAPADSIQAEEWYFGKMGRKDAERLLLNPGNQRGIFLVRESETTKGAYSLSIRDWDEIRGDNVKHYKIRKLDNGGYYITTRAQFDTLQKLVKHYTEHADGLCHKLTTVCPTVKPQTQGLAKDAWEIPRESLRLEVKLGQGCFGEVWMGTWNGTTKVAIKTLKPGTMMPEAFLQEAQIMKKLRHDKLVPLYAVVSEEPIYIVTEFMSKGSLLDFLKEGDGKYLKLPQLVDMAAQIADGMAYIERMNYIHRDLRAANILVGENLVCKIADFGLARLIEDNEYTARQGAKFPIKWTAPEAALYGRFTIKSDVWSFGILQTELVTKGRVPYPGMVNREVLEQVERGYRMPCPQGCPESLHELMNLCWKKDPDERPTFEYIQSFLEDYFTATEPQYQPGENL

Measured: Kd

Serine/threonine-protein kinase pim-2, sequence (Q9P1W9 whole entry): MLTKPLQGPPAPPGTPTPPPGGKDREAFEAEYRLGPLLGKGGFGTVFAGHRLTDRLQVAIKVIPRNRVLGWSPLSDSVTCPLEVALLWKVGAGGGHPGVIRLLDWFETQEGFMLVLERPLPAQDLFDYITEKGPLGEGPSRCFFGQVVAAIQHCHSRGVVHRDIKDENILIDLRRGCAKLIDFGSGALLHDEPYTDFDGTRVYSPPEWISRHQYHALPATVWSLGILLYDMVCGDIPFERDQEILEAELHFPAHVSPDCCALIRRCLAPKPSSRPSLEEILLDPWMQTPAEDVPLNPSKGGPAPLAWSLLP
Activated CDC42 kinase 1, sequence (Q07912 whole entry): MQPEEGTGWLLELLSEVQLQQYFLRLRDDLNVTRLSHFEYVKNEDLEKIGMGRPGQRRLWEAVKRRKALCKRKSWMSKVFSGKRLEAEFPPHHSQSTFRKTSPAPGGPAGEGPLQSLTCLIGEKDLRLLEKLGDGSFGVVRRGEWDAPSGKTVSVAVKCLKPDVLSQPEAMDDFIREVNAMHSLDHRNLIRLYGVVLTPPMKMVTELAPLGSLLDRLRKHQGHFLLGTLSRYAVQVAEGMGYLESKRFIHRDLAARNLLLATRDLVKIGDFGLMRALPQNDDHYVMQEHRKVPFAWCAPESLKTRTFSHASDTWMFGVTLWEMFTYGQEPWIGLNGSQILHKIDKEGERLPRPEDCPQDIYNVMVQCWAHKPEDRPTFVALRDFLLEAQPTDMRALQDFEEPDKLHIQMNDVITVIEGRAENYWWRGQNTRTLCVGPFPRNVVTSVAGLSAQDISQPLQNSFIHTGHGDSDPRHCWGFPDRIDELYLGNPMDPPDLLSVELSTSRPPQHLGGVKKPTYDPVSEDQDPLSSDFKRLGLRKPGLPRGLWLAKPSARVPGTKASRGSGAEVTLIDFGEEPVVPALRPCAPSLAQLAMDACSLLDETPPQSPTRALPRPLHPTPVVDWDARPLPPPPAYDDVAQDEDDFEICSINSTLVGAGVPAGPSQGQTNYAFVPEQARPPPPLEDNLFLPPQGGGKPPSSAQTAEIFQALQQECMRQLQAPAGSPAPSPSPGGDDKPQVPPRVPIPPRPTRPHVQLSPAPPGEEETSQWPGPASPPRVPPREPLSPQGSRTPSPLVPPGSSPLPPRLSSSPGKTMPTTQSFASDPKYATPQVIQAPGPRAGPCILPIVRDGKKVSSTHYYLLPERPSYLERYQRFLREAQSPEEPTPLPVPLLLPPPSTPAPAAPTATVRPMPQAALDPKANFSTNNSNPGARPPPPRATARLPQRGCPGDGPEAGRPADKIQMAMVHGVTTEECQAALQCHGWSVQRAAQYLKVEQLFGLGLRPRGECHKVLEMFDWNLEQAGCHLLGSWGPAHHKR
Receptor-interacting serine/threonine-protein kinase 2, sequence (O43353 whole entry): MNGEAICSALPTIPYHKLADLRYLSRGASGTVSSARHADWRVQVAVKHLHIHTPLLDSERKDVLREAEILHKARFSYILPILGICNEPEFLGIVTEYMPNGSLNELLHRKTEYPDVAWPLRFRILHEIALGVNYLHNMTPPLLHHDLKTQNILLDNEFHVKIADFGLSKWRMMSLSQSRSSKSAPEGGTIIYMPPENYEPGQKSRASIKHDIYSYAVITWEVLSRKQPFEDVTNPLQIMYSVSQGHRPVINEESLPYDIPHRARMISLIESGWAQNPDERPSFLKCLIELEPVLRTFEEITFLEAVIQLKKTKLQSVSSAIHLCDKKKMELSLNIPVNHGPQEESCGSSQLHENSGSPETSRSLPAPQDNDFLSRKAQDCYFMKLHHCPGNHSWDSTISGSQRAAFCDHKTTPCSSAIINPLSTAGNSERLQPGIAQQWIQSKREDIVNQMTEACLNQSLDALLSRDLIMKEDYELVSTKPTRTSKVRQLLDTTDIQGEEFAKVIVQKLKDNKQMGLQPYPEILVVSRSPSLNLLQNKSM

O=c1ncn2nc(Sc3ccc(F)cc3F)ccc2c1-c1c(Cl)cccc1Cl [NEFLAMAPIMOD]
not listed: [11] | Ephrin type-A receptor 2 | [12]
Not Active: all other assays above

C[S+]([O-])c1ccc(-c2nc(-c3ccc(F)cc3)c(-c3ccncc3)[nH]2)cc1 (stereo not drawn) [SB-203580]
not listed: [1]
Not Active: all other assays above

CC[C@H](CO)Nc1nc(NCc2ccccc2)c2ncn(C(C)C)c2n1 [SELICICLIB]
not listed: [4] | [7]
Not Active: all other assays above

COc1cc2c(N3CCN(C(=O)Nc4ccc(OC(C)C)cc4)CC3)ncnc2cc1OCCCN1CCCCC1 [TANDUTINIB]
Not Active: all assays above
